The source of these data is article PMC13065029 (PLOS One, 2026).

In assay [1] the target is T1, CHIKV nsP2^pro (Chikungunya virus, UniProt Q8JUX6). The following applies: ref [18]; cited from earlier work.
In assay [2] the target is T1, CHIKV nsP2^pro. The note with it: FRET; ref [18]; read-out: IC₅₀; cited from earlier work.
Assay [3] addresses T1, CHIKV nsP2^pro. The note with it: fluorometry; ref [18]; cited from earlier work.
Assay [4] concerns the target T1, CHIKV nsP2^pro. The note with it: MST; ref [67]; cited from earlier work.
The subject of assay [5] is Human alphaherpesvirus 1 (HSV-1). The note with it: cited from earlier work.
The next assay has as its system Yellow Fever virus. The note with it: cited from earlier work.
Another assay deals with Dengue virus. The note with it: cited from earlier work.
For assay [6], the target named is T2, Chikungunya virus (CHIKV) nsP2 protease (Chikungunya virus).
T2 chain: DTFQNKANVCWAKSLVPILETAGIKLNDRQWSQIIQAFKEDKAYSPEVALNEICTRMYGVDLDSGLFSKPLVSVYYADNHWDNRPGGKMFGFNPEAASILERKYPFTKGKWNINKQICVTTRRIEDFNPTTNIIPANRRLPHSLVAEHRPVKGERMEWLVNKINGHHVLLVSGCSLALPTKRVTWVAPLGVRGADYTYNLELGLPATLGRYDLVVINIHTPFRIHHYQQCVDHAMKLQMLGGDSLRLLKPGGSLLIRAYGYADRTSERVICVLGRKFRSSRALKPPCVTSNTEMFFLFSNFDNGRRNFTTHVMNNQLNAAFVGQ
The assay is described as follows: BLI. The following applies: both partners purified.

Where two headings read alike, the source gives them in different places.

As to `COc1ccc([C@@H]2CC(=O)c3c(O)cc(O)cc3O2)cc1O` [Hesperetin (HST), Hesperetin], the “Inhibition Mode” value at CHIKV nsP2^pro [1] is listed as “Noncompetitive”. Further, at CHIKV nsP2^pro [2], the IC50 was 2.5 ± 0.4 µM. In addition, at CHIKV nsP2^pro [3], the equilibrium dissociation constant (Kd) was 31.6 ± 2.5 µM. Take `COc1ccc([C@@H]2CC(=O)c3c(O)cc(O[C@@H]4O[C@H](CO[C@@H]5O[C@@H](C)[C@H](O)[C@@H](O)[C@H]5O)[C@@H](O)[C@H](O)[C@H]4O)cc3O2)cc1O` [Hesperidin (HSD), Hesperidin]: at CHIKV nsP2^pro [1], the “Inhibition Mode” value is “Noncompetitive”. Moreover, at CHIKV nsP2^pro [2], the IC50 is 7.1 ± 1.1 µM. The Kd at CHIKV nsP2^pro [3] is 40.7 ± 2 µM. Regarding `CC1=C(CO)C(=O)O[C@@H]([C@@H](C)[C@H]2CC[C@H]3[C@@H]4C[C@H]5O[C@]56[C@@H](O)C=CC(=O)[C@]6(C)[C@H]4CC[C@]23C)C1` [Withaferin A (WFA), Withaferin A], on CHIKV nsP2^pro [4], the Kd is 64 µM. With Mastoparan, in assay [5], the antiviral activity result is “antiviral activity”. Consider Phospholipase A2, for which the antiviral activity result in the assay with Yellow Fever virus and in the assay on Dengue virus was “antiviral activity” throughout.

GILGKLWEGFKSIV (Stock of 10 mM in DMSO) [pantinin-1] had a Kd in assay [6] of 9.29 µM.
